Results as given in patent publication US7488736B2, “Thienopyridinone compounds and methods of treatment” (Epix Delaware, Inc., priority 2004, dated 2009).
Counter-ions that a name gives are not always drawn.

Legend:
h 5-HT4e Receptor = h 5-HT4e Receptor (Homo sapiens, UniProt Q13639); experiment: h 5-HT4e receptor binding affinity assay
rats [1] = experiment: Reversal of the scopolamine-induced deficit of Morris water maze performance; type: in vivo, rat
Excerpt: Reversal of the Scopolamine-Induced Deficit of Water Maze Performance in Rats
The Morris Water Maze test is commonly used to study hippocampal-dependent spatial memory acquisition. It consists of a water pool with a hidden escape platform where the rats must learn the location of the platform using either contextual or local cues. […] Lesions of the hippocampus or its cholinergic input impair performance (e.g., by scopolamine) by inducing a performance deficit (latency or time to reach the platform location) in this test without affecting the speed of swimming or other general behaviors in the test animals.

rats [2] = experiment: Spontaneous alternation task (cross maze), spatial working memory; type: in vivo, rat; parameters: number of arm entries: unit not given here; settings: 5 mg/kg i.p., 12 minutes on cross maze
Excerpt: Effect of Compound 23 on Spatial Working Memory in the Spontaneous Alternation Task Performance in Rats
Rats have an innate tendency to explore their environment in a systematic way. That is, if a rat chose a certain arm on the first trial in a maze, there is high probability that it will choose a different arm on the second trial. […] The performance in the spontaneous alternation test is highly dependent on spatial working memory capacity and rats with compromised “working memory” cannot retain information regarding places just visited in memory; therefore they show decreased spontaneous alternation. In this study, rats were tested for spontaneous alternation performance on the cross maze. Rats were allowed to explore the maze freely for 12 minutes. An alternation was recorded if a rat entered all four arms within a series of four consecutive entries. Chance performance is 22.5% with this measure.

[3] = scopolamine 1 mg/kg i.p., compound at both 15 mg/kg and 30 mg/kg p.o.

h 5-HT4e Receptor, sequence (Q13639 1-378 isoform Q13639-5): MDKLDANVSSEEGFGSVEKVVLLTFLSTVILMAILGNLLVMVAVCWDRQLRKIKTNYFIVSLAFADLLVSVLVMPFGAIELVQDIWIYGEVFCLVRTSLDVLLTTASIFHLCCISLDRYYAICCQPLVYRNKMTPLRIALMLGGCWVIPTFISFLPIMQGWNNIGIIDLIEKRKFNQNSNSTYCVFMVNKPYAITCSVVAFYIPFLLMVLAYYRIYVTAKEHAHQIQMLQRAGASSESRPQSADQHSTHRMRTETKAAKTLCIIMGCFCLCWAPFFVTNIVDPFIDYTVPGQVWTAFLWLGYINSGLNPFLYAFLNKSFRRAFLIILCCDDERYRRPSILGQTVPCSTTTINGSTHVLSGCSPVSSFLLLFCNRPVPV

`CCCn1c(=O)c(C(=O)NCCCN2CCC(C)CC2)c(O)c2ccsc21` [Compound 2, 6,7-Dihydro-4-hydroxy-N-(3-(4-methylpiperidin-1-yl)propyl)-6-oxo-7-propylthieno[2,3-b]pyridine-5-carboxamide hydrochloride salt] gave a Ki (h 5-HT4e Receptor) of 0.16 µM.

`CN1[C@@H]2C[C@@H](OC(=O)[C@H](CO)c3ccccc3)C[C@H]1[C@@H]1O[C@@H]12` [scopolamine, reference compound] was tested, and the “increase in latency and path length to find the platform compared with vehicle treated rats” value (rats [1]; scopolamine pretreatment 1 mg/kg i.p.) was about 5 fold.

`COc1c(C(=O)NCCCN2CCCCC2)c(=O)n(C(C)C)c2sccc12` [Compound 16, 6,7-Dihydro-7-isopropyl-4-methoxy-6-oxo-N-(3-(piperidin-1-yl)propyl)thieno[2,3-b]pyridine-5-carboxamide] gave a Ki (h 5-HT4e Receptor) of 0.031 µM.

Work on `CC(C)n1c(=O)c(C(=O)NCCCN2CCC(C(F)(F)F)CC2)c(O)c2ccsc21` [Compound 9, 6,7-Dihydro-4-hydroxy-7-isopropyl-6-oxo-N-(3-(4-(trifluoromethyl)piperidin-1-yl)propyl)thieno[2,3-b]pyridine-5-carboxamide hydrochloride salt] yielded a Ki (h 5-HT4e Receptor) of 0.05 µM.

Compound `CCn1c(=O)c(C(=O)NCCCN2CCCCC2)c(O)c2ccsc21` [Compound 3, 6,7-Dihydro-7-ethyl-4-hydroxy-6-oxo-N-(3-(piperidin-1-yl)propyl)thieno[2,3-b]pyridine-5-carboxamide hydrochloride salt] has a Ki (h 5-HT4e Receptor) of 0.036 µM.

With `COC(=O)C1CCN(CCCNC(=O)c2c(O)c3ccsc3n(C(C)C)c2=O)CC1` [Compound 10, 6,7-Dihydro-4-hydroxy-7-isopropyl-6-oxo-N-(3-(4-(methoxycarbonyl)piperidin-1-yl)propyl)thieno[2,3-b]pyridine-5-carboxamide hydrochloride salt] the Ki (h 5-HT4e Receptor) was 0.04 µM.

`CC(C)n1c(=O)c(C(=O)NCCCN2CCCCC2)c([O-])c2ccsc21.[K+]` [Compound 23, 6,7-Dihydro-4-hydroxy-7-isopropyl-6-oxo-N-(3-(piperidin-1-yl)propyl)thieno[2,3-b]pyridine-5-carboxamide potassium salt] was tested, and the “number of arm entries” value (rats [2]) was 30, the mean alternation score (rats [2]; chance performance 22.5%) was 58%±3% and the “decrease in path length to reach the platform” value (rats [1]; [3]) was 35-55%. The “decrease in time to reach the platform” value (rats [1]; [3]) was 25-30%.

In the case of `CC(C)n1c(=O)c(C(=O)NCCCN2CCC(C)(C)CC2)c(O)c2ccsc21` [Compound 12, 6,7-Dihydro-N-(3-(4,4-dimethylpiperidin-1-yl)propyl)-4-hydroxy-7-isopropyl-6-oxothieno[2,3-b]pyridine-5-carboxamide hydrochloride salt], the Ki (h 5-HT4e Receptor) is reported as 0.2 µM.

In the case of `CCn1c(=O)c(C(=O)NCCCN2CCC(C)CC2)c(O)c2ccsc21` [Compound 4, 6,7-Dihydro-7-ethyl-4-hydroxy-N-(3-(4-methylpiperidin-1-yl)propyl)-6-oxothieno[2,3-b]pyridine-5-carboxamide hydrochloride salt], the Ki (h 5-HT4e Receptor) is reported as 0.02 µM.

`Cc1sc2c(c1C)c(O)c(C(=O)NCCCN1CCCCC1)c(=O)n2C(C)C` [Compound 14, 6,7-Dihydro-2,3-dimethyl-4-hydroxy-7-isopropyl-6-oxo-N-(3-(piperidin-1-yl)propyl)thieno-[2,3-b]pyridine-5-carboxamide hydrochloride salt] gave a Ki (h 5-HT4e Receptor) of 0.14 µM.

`CC(C)Cn1c(=O)c(C(=O)NCCCN2CCCCC2)c(O)c2ccsc21` [Compound 1, 6,7-Dihydro-4-hydroxy-7-isobutyl-6-oxo-N-(3-(piperidin-1-yl)propyl)thieno[2,3-b]pyridine-5-carboxamide hydrochloride salt] gave a Ki (h 5-HT4e Receptor) of 0.12 µM.

For `CC(C)n1c(=O)c(C(=O)NCCCN2CCC(F)(F)CC2)c(O)c2ccsc21` [Compound 11, N-(3-(4,4-Difluoropiperidin-1-yl)propyl)-6,7-dihydro-4-hydroxy-7-isopropyl-6-oxothieno[2,3-b]pyridine-5-carboxamide hydrochloride salt], the Ki (h 5-HT4e Receptor) was 0.22 µM.

With `CC1CCN(CCCNC(=O)c2c(O)c3ccsc3n(C(C)C)c2=O)CC1` [Compound 8, 6,7-Dihydro-4-hydroxy-7-isopropyl-N-(3-(4-methylpiperidin-1-yl)propyl)-6-oxothieno[2,3-b]pyridine-5-carboxamide hydrochloride salt] the Ki (h 5-HT4e Receptor) was 0.065 µM.

Compound `CC(C)n1c(=O)c(C(=O)NCCCN2[C@H](C)CCC[C@@H]2C)c(O)c2ccsc21` [Compound 13, 6,7-Dihydro-N-(3-((2R,6S)-2,6-dimethylpiperidin-1-yl)propyl)-4-hydroxy-7-isopropyl-6-oxothieno[2,3-b]pyridine-5-carboxamide hydrochloride salt] has a Ki (h 5-HT4e Receptor) of 0.38 µM.

Compound `CC(C)n1c(=O)c(C(=O)NCCCN2CCCC2)c(O)c2ccsc21` [Compound 6, 6,7-Dihydro-4-hydroxy-7-isopropyl-6-oxo-N-(3-(pyrrolidin-1-yl)propyl)thieno-[2,3-b]pyridine-5-carboxamide hydrochloride salt] has a Ki (h 5-HT4e Receptor) of 0.035 µM.

Compound `CCC1CCN(CCCNC(=O)c2c(O)c3ccsc3n(CC)c2=O)CC1` [Compound 5, 6,7-Dihydro-7-ethyl-N-(3-(4-ethylpiperidin-1-yl)propyl)-4-hydroxy-6-oxothieno[2,3-b]pyridine-5-carboxamide hydrochloride salt] has a Ki (h 5-HT4e Receptor) of 0.026 µM.
